Among the data in ChEMBL document CHEMBL1201862, “PubChem BioAssay data set” (2004) are IC50 and AC50 values, retold here.

The source made the active and inactive calls.

The target in one assay is Beta-galactosidase (Escherichia coli, UniProt Q8VNN2). Nature of the assay: Dose response counterscreen for EBI2 assay utilizing the enzyme, b-galactosidase. It counts as functional. For orientation: Counterscreens check selectivity or assay interference.
The next assay relates to HEK293. Kind of assay: viability loss in HEK293T cells – cell-based, ATP luminescence, cherry-pick samples, cytotoxicity control, dose response (AID 687005).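 Note: cells exposed to compound for 48 hours.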 The format is functional. Conditions: Homo sapiens.
The nature of assay [1]: HEK293 Cytotoxicity Assay Measured in Cell-Based System Using Plate Reader - 7071-01_Inhibitor_Dose_CherryPick_Activity_Set2. It counts as functional.
Assay [2] concerns the target Nuclear receptor subfamily 5 group A member 2 (Homo sapiens, UniProt O00482). It counts as functional, cell-based.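 Note: HEK293T cells transfected with LRH-1 and a StAR promoter luciferase reporter; potency for inhibitors that lower LRH-1 driven reporter light.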
Another assay deals with Steroidogenic factor 1 (Homo sapiens, UniProt Q13285). Kind of assay: Counterscreen for inverse agonists of the liver receptor homolog-1 (LRH-1; NR5A2): Luminescence-based cell-based high throughput dose response assay to identify inverse agonists of the Steroidogenic Factor 1 Nuclear Receptor (SF1; NR5A1). The format is functional.
Assay [3] can be described thus: nonselective StAR promoter luciferase inhibitors – cell-based, luminescence, luciferase reporter, counter-screen for LRH-1 inverse agonist project, dose response (AID 651969). It counts as functional.
The next assay deals with A549. Kind of assay: viability loss in A549 cells – cell-based, plate reader, cherry-pick samples, cytotoxicity control, dose response (AID 687028). It counts as functional. The following applies: Homo sapiens.
The nature of assay [4]: OVCAR4 cell viability loss – plate reader, dry powder, SA11, cytotoxicity control for PAX8 inhibitor project, dose response (AID 743150). Conditions: OVCAR-4. It counts as functional, cell-based.
Assay [5] in a line: COV362 cell viability loss – plate reader, dry powder, SA12, cytotoxicity control for PAX8 inhibitor project, dose response (AID 743144). It counts as functional, cell-based.
The target in the next assay is Paired box protein Pax-8 (Homo sapiens, UniProt Q06710). Kind of assay: PAX8 transcriptional activity inhibition in RMG-I – RMG-I cells, luciferase, cherry-pick, dose response (AID 687027).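 Note: luciferase reporter driven by Pax8 target thyroperoxidase promoter measured by SteadyGlo luminescence.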 The format is functional, cell-based.
Assay [6] in a line: PAX5 cellular inhibition readout – cell-based, plate reader, dry powder samples, selectivity assay for PAX8 inhibitor project, dose response (AID 743047).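 Note: HEK293 cells carrying a Pax5 driven CD19 promoter luciferase reporter; potency of inhibitors that lower reporter luminescence.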 It counts as functional.
The nature of assay [7]: IGROV1 cell killing – plate reader, dry powder samples, PAX8 inhibitor project, dose response (AID 743043). It counts as functional, cell-based. Conditions: IGROV-1.
A short description of assay [8]: inhibitors acting on PAX2 in cells – cell-based, plate reader, dry powder samples, selectivity assay for PAX8 inhibitor project, dose response (AID 743048).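 Note: HEK293 cells carrying a WT1 promoter luciferase reporter driven by expressed Pax2; potency is for inhibition of Pax2 driven reporter signal.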 The format is functional.
The nature of assay [9]: COV434 cell viability loss – plate reader, dry powder, SA7, cytotoxicity control for PAX8 inhibitor project, dose response (AID 743145). The format is functional, cell-based.
Assay [10] is described as follows: OVCAR-3 cell viability loss – plate reader, dry powder samples, PAX8 inhibitor project, dose response (AID 743044). It counts as functional, cell-based.
Assay [11] can be described thus: PAX8-dependent cell viability loss – plate reader, dry powder, dose response (AID 743049). The format is functional, cell-based.
Assay [12] in a line: OV-90 cell viability loss – plate reader, dry powder, SA8, PAX8 inhibitor project, dose response (AID 743149). It counts as functional, cell-based.
Assay [13] in a line: MITF Orthogonal Assay: SK-MEL-5 CTG Assay Measured in Cell-Based System Using Plate Reader - 2084-02_Inhibitor_Dose_DryPowder_Activity_Set7. It counts as functional.
The nature of assay [14]: inhibitors of TRPM1-promoter reporter in SK-MEL-5 – cell-based, luciferase, dry powder, set 8, MITF inhibitor project, dose response (AID 624430). It counts as functional.
Assay [15] is described as follows: MITF: Counter assay: A375 proliferation Measured in Cell-Based System Using Plate Reader - 2084-03_Inhibitor_Dose_DryPowder_Activity_Set8. It counts as functional. Conditions: A-375.
A short description of assay [16]: A Cell-Based Confirmatory Screen for Compounds that Inhibit VEEV, TC-83 (7). It counts as functional.
Assay [17] is described as follows: P. falciparum Dd2 growth inhibitors, dose response, SYBR Green, cherry-picked samples (AID 1159567). It counts as functional, cell-based.
The nature of assay [18]: mouse embryonic fibroblast toxicity – cell-based, plate reader, dry powder, set 2, cytotoxicity control, dose response (AID 652280). It counts as functional. Conditions: NIH3T3.
The nature of assay [19]: T. cruzi growth inhibition in host cells, dose response, cell-based, plate reader, dry powder, set 2 (AID 652275). It counts as functional.
The target of assay [20] is Endoplasmic reticulum aminopeptidase 1 (Homo sapiens, UniProt Q9NZ08). Kind of assay: inhibition of human ERAP1 enzyme activity – biochemical, cherry-pick, set 2, plate reader, dose response (AID 743314).
Chain of Endoplasmic reticulum aminopeptidase 1 (Q9NZ08 whole entry): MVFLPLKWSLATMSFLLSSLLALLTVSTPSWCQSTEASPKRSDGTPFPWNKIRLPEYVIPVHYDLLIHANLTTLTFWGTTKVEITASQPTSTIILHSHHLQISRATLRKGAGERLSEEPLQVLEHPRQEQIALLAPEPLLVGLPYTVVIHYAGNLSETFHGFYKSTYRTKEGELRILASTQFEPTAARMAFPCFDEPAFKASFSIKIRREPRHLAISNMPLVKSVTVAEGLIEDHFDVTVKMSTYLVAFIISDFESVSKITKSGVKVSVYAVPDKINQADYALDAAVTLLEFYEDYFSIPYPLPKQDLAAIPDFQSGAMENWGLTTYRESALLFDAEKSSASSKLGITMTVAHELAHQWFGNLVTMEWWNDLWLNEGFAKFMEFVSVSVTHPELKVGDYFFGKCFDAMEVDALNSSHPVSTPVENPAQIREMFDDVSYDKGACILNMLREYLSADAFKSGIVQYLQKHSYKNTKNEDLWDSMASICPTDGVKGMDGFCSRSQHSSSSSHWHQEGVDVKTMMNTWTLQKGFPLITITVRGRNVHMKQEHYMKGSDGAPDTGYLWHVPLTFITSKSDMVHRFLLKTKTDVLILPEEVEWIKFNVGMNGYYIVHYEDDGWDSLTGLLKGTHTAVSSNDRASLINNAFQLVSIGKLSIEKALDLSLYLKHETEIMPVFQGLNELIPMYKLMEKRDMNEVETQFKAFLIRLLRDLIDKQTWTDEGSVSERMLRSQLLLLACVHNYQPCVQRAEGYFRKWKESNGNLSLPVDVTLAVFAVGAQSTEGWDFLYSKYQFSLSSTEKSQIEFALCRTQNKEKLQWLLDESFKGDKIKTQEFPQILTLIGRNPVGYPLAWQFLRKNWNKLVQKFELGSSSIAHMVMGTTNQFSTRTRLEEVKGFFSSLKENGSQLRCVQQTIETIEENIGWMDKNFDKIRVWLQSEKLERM

Chain of Steroidogenic factor 1 (Q13285 whole entry): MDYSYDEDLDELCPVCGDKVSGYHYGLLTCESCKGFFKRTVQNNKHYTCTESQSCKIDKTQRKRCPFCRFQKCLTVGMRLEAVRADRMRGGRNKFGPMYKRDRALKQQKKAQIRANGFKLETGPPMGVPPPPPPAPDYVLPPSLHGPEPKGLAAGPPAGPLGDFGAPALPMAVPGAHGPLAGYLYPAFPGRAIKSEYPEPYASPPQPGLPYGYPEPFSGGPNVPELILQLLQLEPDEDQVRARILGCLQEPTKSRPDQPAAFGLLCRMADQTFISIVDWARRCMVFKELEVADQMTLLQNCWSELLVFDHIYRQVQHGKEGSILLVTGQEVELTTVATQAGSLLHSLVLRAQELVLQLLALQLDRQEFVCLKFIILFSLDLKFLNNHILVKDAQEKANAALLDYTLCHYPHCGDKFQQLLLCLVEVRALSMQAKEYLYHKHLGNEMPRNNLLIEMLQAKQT
Chain of Beta-galactosidase (Q8VNN2 whole entry): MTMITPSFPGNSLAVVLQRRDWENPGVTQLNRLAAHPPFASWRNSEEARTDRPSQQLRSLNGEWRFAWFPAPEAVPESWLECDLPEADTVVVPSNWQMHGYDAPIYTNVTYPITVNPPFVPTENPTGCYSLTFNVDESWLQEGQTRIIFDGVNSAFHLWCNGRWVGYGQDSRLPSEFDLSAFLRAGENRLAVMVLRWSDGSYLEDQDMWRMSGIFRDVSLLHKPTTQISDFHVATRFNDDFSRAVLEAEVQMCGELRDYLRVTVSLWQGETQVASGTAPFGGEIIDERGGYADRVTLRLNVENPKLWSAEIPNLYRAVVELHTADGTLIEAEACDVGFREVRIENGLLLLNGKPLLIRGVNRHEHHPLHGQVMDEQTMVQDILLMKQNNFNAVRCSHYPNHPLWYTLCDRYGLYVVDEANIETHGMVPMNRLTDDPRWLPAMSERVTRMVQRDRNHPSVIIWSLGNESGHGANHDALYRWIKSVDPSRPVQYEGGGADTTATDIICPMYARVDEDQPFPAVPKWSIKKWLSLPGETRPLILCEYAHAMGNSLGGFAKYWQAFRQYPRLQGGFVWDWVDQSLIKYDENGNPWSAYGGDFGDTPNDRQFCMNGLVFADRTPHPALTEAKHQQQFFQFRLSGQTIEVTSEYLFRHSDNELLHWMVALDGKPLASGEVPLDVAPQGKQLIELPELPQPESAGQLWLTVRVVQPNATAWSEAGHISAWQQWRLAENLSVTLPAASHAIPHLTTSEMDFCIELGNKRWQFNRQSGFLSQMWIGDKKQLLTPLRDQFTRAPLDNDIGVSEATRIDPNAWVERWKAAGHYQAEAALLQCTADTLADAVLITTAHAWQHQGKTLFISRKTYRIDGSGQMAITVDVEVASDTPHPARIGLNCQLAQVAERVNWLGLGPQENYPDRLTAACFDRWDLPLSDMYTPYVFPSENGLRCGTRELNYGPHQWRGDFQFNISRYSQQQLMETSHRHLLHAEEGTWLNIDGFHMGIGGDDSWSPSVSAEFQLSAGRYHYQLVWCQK
Chain of Nuclear receptor subfamily 5 group A member 2 (O00482 whole entry): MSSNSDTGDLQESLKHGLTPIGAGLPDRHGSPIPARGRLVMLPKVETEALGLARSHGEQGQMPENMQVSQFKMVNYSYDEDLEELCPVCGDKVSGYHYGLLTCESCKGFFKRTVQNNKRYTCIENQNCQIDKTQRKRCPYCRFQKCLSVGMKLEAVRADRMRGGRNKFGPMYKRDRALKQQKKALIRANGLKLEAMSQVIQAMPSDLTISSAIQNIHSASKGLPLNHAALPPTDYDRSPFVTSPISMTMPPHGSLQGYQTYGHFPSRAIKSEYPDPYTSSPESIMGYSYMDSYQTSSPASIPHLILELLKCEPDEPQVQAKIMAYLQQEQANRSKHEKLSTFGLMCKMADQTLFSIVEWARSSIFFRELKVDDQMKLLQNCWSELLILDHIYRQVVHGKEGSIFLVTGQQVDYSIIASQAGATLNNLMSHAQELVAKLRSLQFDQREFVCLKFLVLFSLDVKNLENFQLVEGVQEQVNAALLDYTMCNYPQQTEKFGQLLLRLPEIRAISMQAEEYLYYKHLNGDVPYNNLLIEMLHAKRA
Chain of Paired box protein Pax-8 (Q06710 whole entry): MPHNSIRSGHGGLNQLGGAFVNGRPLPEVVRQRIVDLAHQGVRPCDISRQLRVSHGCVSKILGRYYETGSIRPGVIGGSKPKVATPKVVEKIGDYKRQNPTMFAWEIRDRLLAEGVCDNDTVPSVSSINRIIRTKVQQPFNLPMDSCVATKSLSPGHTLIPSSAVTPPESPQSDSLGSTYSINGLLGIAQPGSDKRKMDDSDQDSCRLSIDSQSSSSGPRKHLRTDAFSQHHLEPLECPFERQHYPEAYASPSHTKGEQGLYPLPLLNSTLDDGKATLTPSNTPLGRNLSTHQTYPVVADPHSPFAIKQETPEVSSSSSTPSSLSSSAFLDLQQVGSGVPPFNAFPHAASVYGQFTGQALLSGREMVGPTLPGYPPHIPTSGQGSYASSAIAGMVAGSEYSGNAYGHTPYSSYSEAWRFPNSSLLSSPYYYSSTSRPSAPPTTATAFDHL

Broadly, the IC50 is the concentration that inhibits the measured activity by half. Take `CCOC(=O)c1ccc(S(=O)(=O)N2CCN(C(=O)c3cc4ccccc4o3)CC2)cc1`: the IC50 on Beta-galactosidase was > 80 µM (inactive).
For orientation: AC50 means the concentration giving half of the maximal activity seen. Consider `O=C(c1cccc(Br)c1)N1CCN(c2ccccn2)CC1`, for which the AC50 (in the assay on HEK293; in assay [1]) was > 52 µM (inactive) in each case.
Consider `CC(=O)Nc1cc(-c2ccc(F)cc2)cn2c(-c3ccc(S(C)(=O)=O)cc3)cnc12`, for which the IC50 in [2] is 8.66 µM (active); at Steroidogenic factor 1, 3.15 µM (active); in assay [3] it was 21.3 µM (inactive).
`C[C@@H]1CCCCO[C@H](CN(C)C(=O)Nc2ccc(C(F)(F)F)cc2)[C@H](C)CN([C@@H](C)CO)C(=O)c2cc(NS(=O)(=O)c3ccc(F)cc3)ccc2O1`: the AC50 with A549 is 28.1 µM (active).
Consider `COc1ccc(S(=O)(=O)Nc2ccc3c(c2)C(=O)N([C@@H](C)CO)C[C@H](C)[C@H](CN(C)Cc2ccc(C(F)(F)F)cc2)OCCCC[C@H](C)O3)cc1`, for which the AC50 in [4] is 33.6 µM (active); in [5], 38.3 µM (active); at Paired box protein Pax-8, 5.59 µM (active); in assay [6], 19.6 µM (active); in [7], 34.5 µM (active); in assay [8], 15.5 µM (active). The AC50 was 26.5 µM (active) in assay [9], 17.1 µM (active) in assay [10], 24.2 µM (active) in assay [11] and 21.9 µM (active) in [12].
For `CN1CCN(C2=C(Nc3ccc(Cl)c(Cl)c3)C(=O)c3ccccc3C2=O)CC1`, the AC50 in assay [13] is 7.66 µM (active); in [14], 6.64 µM (active); in assay [15], 27.9 µM (active).
Regarding `O=c1c2cc([N+](=O)[O-])ccc2nc(CN2CCCNC2)n1-c1ccccc1`, the IC50 in [16] is 1.13 µM (active).
Turning to `CN(C)CC#Cc1cccc(-c2nc(C(=O)N[C@@H]3CCN(Cc4ccccc4)C3)cc3c2[C@H](CCO)N([S+]([O-])C(C)(C)C)C3)c1` (stereo not given in full), the results for the AC50 in assay [17], in [18] and in assay [19] were 2.71 µM (active), 5.14 µM (active) and 0.58 µM (active), respectively.
On to `CCCNC(=O)[C@H]1[C@H](CO)[C@H]2Cn3c(ccc(/C=C/c4ccccc4)c3=O)[C@H]2N1CCC`, for which the AC50 in assay [20] was 14.8 µM (active).
